Experimental data taken from patent US9511064B2, “Combination therapy for the treatment of cancer and immunosuppression” (Basilea Pharmaceutica AG, priority 2012, dated 2016).
Where two headings read alike, the source gives them in different places.

How the values were obtained:
Assay type in all cases: cell-based
mouse mast cell line 6.5 = assay: AlamarBlue conversion cell proliferation assay, 6.5 cell line
Method: (§1) The in vitro anti-proliferative activity of compounds of formula (I), metformin and combinations thereof is tested in an AlamarBlue conversion cell proliferation assay (Promega) on HL60 tumor cells and the mouse mast cell line 6.5 (Colombi et al., Oncogene 2011, 30:1551-65). Cells are seeded into 96-well microtiter plates (seeding cell density is 7,000 cells per well in 150 uL Iscove's medium) and test compounds are added (compounds of formula (I) are added from a 10 mM stock solution in DMSO, metformin from a freshly prepared 1 M solution in culture medium). Plates are incubated for 3 days at 37°, 5% CO2 and proliferation is determined by AlamarBlue staining (0.1 vol % added to cultures and incubated for further 4-5 hours). The conversion of AlamarBlue is proportional to live cell number and is read with a fluorescence plate reader (Ex/Em 535/595 nm). Growth is normalized to the untreated controls.

HL60 tumor cells = assay: AlamarBlue conversion cell proliferation assay, HL60 cell line
Method: as §1

[1] = system: HL60 tumor cells and the mouse mast cell line 6.5; assay: AlamarBlue conversion cell proliferation assay, general statements without cell line; conditions: metformin alone at 4 mM
[2] = read-out: concentration that inhibits the proliferation of cells by approximately 50% when combined with 4 mM metformin, 6.5 cell line, 3 days incubation
[3] = read-out: concentration that inhibits the proliferation of cells by approximately 50% when combined with 4 mM metformin, HL60 cell line, 3 days incubation
[4] = combined with 4 mM metformin, 3 days incubation, read-out: concentration that inhibits the proliferation of cells by approximately 50% when combined with 4 mM metformin, 6.5 cell line
[5] = combined with 4 mM metformin, 3 days incubation, read-out: concentration that inhibits the proliferation of cells by approximately 50% when combined with 4 mM metformin, HL60 cell line

Compound | IC50 (mouse mast cell line 6.5; [2]) [nM] | IC50 (HL60 tumor cells; [3]) [nM] | IC50 (mouse mast cell line 6.5; [4]) [nM] | IC50 (HL60 tumor cells; [5]) [nM] | anti-proliferative activity on its own [1]
COC(=O)[C@H]1[C@H]2C[C@@H]3c4[nH]c5cc(OC)ccc5c4CCN3C[C@H]2C[C@@H](OC(=O)c2cc(OC)c(OC(=O)Cc3ccccc3)c(OC)c2)[C@@H]1OC [Example 20, methyl (1R,15S,17R,18R,19S,20S)-17-({3,5-dimethoxy-4-[(2-phenylacetyl)oxy]phenyl}carbonyloxy)-6,18-dimethoxy-3,13-diazapentacyclo[11.8.0.0^2,10.0^4,9.0^15,20]henicosa-2(10),4,6,8-tetraene-19-carboxylate] | 5000 | 5000 |  |  | 
COC(=O)[C@H]1[C@H]2C[C@@H]3c4[nH]c5cc(OC)ccc5c4CCN3C[C@H]2C[C@@H](OC(=O)c2cc(OC)c(OC(=O)OCc3ccccc3)c(OC)c2)[C@@H]1OC [Example 21, methyl (1R,15S,17R,18R,19S,20S)-17-[(4-{[(benzyloxy)carbonyl]oxy}-3,5-dimethoxyphenyl)carbonyloxy]-6,18-dimethoxy-3,13-diazapentacyclo[11.8.0.0^2,10.0^4,9.0^15,20]henicosa-2(10),4,6,8-tetraene-19-carboxylate] | 2000 | 3500 |  |  | 
COC(=O)[C@H]1[C@H]2C[C@@H]3c4[nH]c5cc(OC)ccc5c4CCN3C[C@H]2C[C@@H](OC(=O)c2cc(OC)c(OC(=O)OCc3cccc(Br)c3)c(OC)c2)[C@@H]1OC [Example 31] |  |  | 2000 | 2000 | 
COC(=O)[C@H]1[C@H]2C[C@@H]3c4[nH]c5cc(OC)ccc5c4CCN3C[C@H]2C[C@@H](OC(=O)c2cc(OC)c(OC(=O)OCc3cccc(C(F)(F)F)c3)c(OC)c2)[C@@H]1OC [Example 32] |  |  | 2000 | 2000 | 
COC(=O)[C@H]1[C@H]2C[C@@H]3c4[nH]c5cc(OC)ccc5c4CCN3C[C@H]2C[C@@H](OC(=O)c2cc(OC)c(OC(=O)OCc3cc(F)cc(F)c3)c(OC)c2)[C@@H]1OC [Example 33] |  |  | 2000 | 2000 | 
COC(=O)[C@H]1[C@H]2C[C@@H]3c4[nH]c5cc(OC)ccc5c4CCN3C[C@H]2C[C@@H](OC(=O)c2cc(OC)c(OC(=O)OCc3cccc4ccccc34)c(OC)c2)[C@@H]1OC [Example 34] |  |  | 7500 | 5000 | 
COC(=O)[C@H]1[C@H]2C[C@@H]3c4[nH]c5cc(OC)ccc5c4CCN3C[C@H]2C[C@@H](OC(=O)c2cc(OC)c(OC(=O)OCc3cccc(Cl)c3)c(OC)c2)[C@@H]1OC [Example 35] |  |  | 2000 | 2000 | 
COC(=O)[C@H]1[C@H]2C[C@@H]3c4[nH]c5cc(OC)ccc5c4CCN3C[C@H]2C[C@@H](OC(=O)c2cc(OC)c(OC(=O)OCc3ccc(F)cc3)c(OC)c2)[C@@H]1OC [Example 36] |  |  | 2500 | 3000 | 
COC(=O)[C@H]1[C@H]2C[C@@H]3c4[nH]c5cc(OC)ccc5c4CCN3C[C@H]2C[C@@H](OC(=O)c2cc(OC)c(OC(=O)OCc3ccc(C(F)(F)F)cc3)c(OC)c2)[C@@H]1OC [Example 38] |  |  | 4000 | 4000 | 
CN(C)C(=N)NC(=N)N [Metformin, 3-(diaminomethylidene)-1,1-dimethylguanidine] |  |  |  |  | do not show significant anti-proliferative activity
